Measurements: US20240174690A1, “ANNULATED 2-AMINO-3-CYANO THIOPHENES AND DERIVATIVES FOR THE TREATMENT OF CANCER” (BOEHRINGER INGELHEIM INTERNATIONAL GMBH, priority 2021, published 2024)
Where two headings read alike, the source gives them in different places.

Experiments:
[1] = tested on: LOVO cells; test: LOVO CTG proliferation assay (120 h) (CRC, G13D); assay type: cell-based; settings: CTG 120 h
How it was run: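 IC50 comes from a four-parameter fit of CellTiter-Glo viability, expressed as RLU relative to DMSO wells. Compound exposure lasted 120 h in LOVO cells seeded the day before at 1000 cells/well in DMEM with 10% fetal calf serum.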

[2] = tested on: KRAS G12D-dependent Ba/F3 cells; test: Ba/F3 proliferation assay, KRAS G12D; assay type: cell-based; settings: AlamarBlue
How it was run: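 IL-3-independent Ba/F3 lines carrying retrovirally introduced KRAS G12C, G12D or G12V; puromycin withdrawn ~10 days before assay. Duplicate treatments, AlamarBlue fluorescence readout, curve-fit analysis.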

[3] = Plasma protein binding assay (PPB), equilibrium dialysis, 10% FCS in PBS; assay type: in vitro ADME; settings: for fraction unbound: bovine, read-out: PPB 10% FCS (% fu)
How it was run: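 Test compound (1-10 μmol/L) in 10% FCS in PBS was dialysed for 3-5 h at 37° C versus PBS ± dextran across a semipermeable membrane. LC-MS of both compartments after protein precipitation gave Cserum and Cbuffer, from which the unbound fraction fu was derived.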

[4] = tested on: NCI-H358 cells; test: NCI-H358 CTG proliferation assay (120 h) (NSCLC, G12C); assay type: cell-based, human; settings: assay 2, CTG, read-out: H358 (assay 2) IC50
How it was run: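 IC50 values derive from four-parameter nonlinear regression of CellTiter-Glo viability (RLU relative to DMSO wells) after 120 h of exposure. Cells were plated in RPMI-1640 + 10% FCS at 2000 per well (assay 1) or 200 per well (assay 2). Untreated cells were measured at compound addition as T0.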

[5] = Metabolic (microsomal) stability assay, human liver microsomes (HLM); assay type: in vitro ADME; settings: predicted clearance as percent of liver blood flow, 1 μM
How it was run: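 LC-MS/MS tracked parent disappearance at 0, 5, 15, 30 and 60 min in NADPH-initiated incubations with 1 mg/mL human microsomal protein and 1 μM compound at 37°C, pH 7.5. First-order fits gave intrinsic clearance, which was scaled up and reported as % QH. NADPH-free controls were also run.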

SMILES | IC50 ([1]; Homo sapiens) [µM] | IC50 ([2]; Mus musculus, BaF3, 72 h) [µM] | fraction unbound [3] | IC50 ([4]; Homo sapiens) [µM] | HLM QH [5] [%] | IC50 [1] [µM] | IC50 ([2]; 72 h) [µM] | PPB 10% FCS (% fu) ([3]; fraction unbound) | IC50 [4] [µM]
C[C@H](NC(=O)c1ccn(-c2cc(O[C@@H](C)[C@@H]3CCCN3C)nc(-c3noc4c3CCC[C@@]43CCCc4sc(N)c(C#N)c43)n2)n1)c1ccccn1 [II-191] | 0.013 | 0.011 | 0.03 | 0.003 | 32 | – | – | – | –
C[C@H](Oc1cc(-n2ccc(C(=O)N[C@@H]3CCOC3)n2)nc(-c2noc3c2CCC[C@@]32CCCc3sc(N)c(C#N)c32)n1)[C@@H]1CCCN1C [II-192] | 0.032 | 0.013 | 0.24 | 0.002 | 30 | – | – | – | –
C[C@H](Oc1cc(-n2ccc(C(=O)N[C@H]3CCOC3)n2)nc(-c2noc3c2CCC[C@@]32CCCc3sc(N)c(C#N)c32)n1)[C@@H]1CCCN1C [II-193] | – | – | – | – | 31 | 0.012 | 0.009 | 20 | 0.001
C[C@H](Oc1cc(-n2ccc(C(=O)N(C)C3COC3)n2)nc(-c2noc3c2CCC[C@@]32CCCc3sc(N)c(C#N)c32)n1)[C@@H]1CCCN1C [II-194] | 0.013 | 0.022 | 0.08 | 0.003 | 30 | – | – | – | –
COCCNC(=O)c1ccn(-c2cc(O[C@@H](C)[C@@H]3CCCN3C)nc(-c3noc4c3CCC[C@@]43CCCc4sc(N)c(C#N)c43)n2)n1 [II-195] | 0.012 | 0.014 | 0.24 | 0.004 | 44 | – | – | – | –
CO[C@H]1CCN(C)[C@@H]1[C@H](C)Oc1cc(-n2ccc(C(=O)N[C@@H](C)c3ccccn3)n2)nc(-c2noc3c2CCC[C@@]32CCCc3sc(N)c(C#N)c32)n1 [II-196] | 0.015 | 0.009 | 0.01 | 0.002 | 75 | – | – | – | –
CO[C@H]1CCN(C)[C@@H]1[C@H](C)Oc1cc(-n2ccc(C(=O)N[C@@H]3CCOC3)n2)nc(-c2noc3c2CCC[C@@]32CCCc3sc(N)c(C#N)c32)n1 [II-197] | 0.014 | 0.006 | 0.04 | 0.001 | 69 | – | – | – | –
CO[C@H]1CCN(C)[C@@H]1[C@H](C)Oc1cc(-n2ccc(C(=O)N[C@H]3CCOC3)n2)nc(-c2noc3c2CCC[C@@]32CCCc3sc(N)c(C#N)c32)n1 [II-198] | 0.025 | 0.004 | 0.06 | 0.001 | 63 | – | – | – | –
CO[C@H]1CCN(C)[C@@H]1[C@H](C)Oc1cc(-n2ccc(C(=O)N(C)C3COC3)n2)nc(-c2noc3c2CCC[C@@]32CCCc3sc(N)c(C#N)c32)n1 [II-199] | 0.034 | 0.016 | 0.07 | 0.005 | 67 | – | – | – | –
COCCNC(=O)c1ccn(-c2cc(O[C@@H](C)[C@@H]3[C@@H](OC)CCN3C)nc(-c3noc4c3CCC[C@@]43CCCc4sc(N)c(C#N)c43)n2)n1 [II-200] | 0.015 | 0.008 | 0.03 | 0.003 | 65 | – | – | – | –
C[C@H](Oc1cc(-n2cc3ccn([C@H]4CCOC4)c(=O)c3n2)nc(-c2noc3c2CCC[C@@]32CCCc3sc(N)c(C#N)c32)n1)[C@@H]1CCCN1C [II-202] | 0.103 | 0.056 | 0.05 | 0.005 | <24 | – | – | – | –
C[C@H](Oc1cc(-n2cc3ccn([C@@H](C)c4ccccn4)c(=O)c3n2)nc(-c2noc3c2CCC[C@@]32CCCc3sc(N)c(C#N)c32)n1)[C@@H]1CCCN1C [II-205] | 0.022 | 0.085 | 0.06 | 0.018 | <24 | – | – | – | –
C[C@H](Oc1cc(-n2ccc(-c3cn([C@@H]4CCOC4)nn3)n2)nc(-c2noc3c2CCC[C@@]32CCCc3sc(N)c(C#N)c32)n1)[C@@H]1CCCN1C [II-211] | 0.04 | 0.028 | 0.02 | 0.001 | <24 | – | – | – | –
C[C@H](Oc1cc(-n2ccc(-c3cn([C@H]4CCOC4)nn3)n2)nc(-c2noc3c2CCC[C@@]32CCCc3sc(N)c(C#N)c32)n1)[C@@H]1CCCN1C [II-212] | 0.035 | 0.01 | 0.05 | 0.001 | <24 | – | – | – | –

The remaining compounds from weak to strong by IC50 ([1]; Homo sapiens), led by results:

IC50 ([1]; Homo sapiens) [µM] | IC50 ([2]; Mus musculus, BaF3, 72 h) [µM] | fraction unbound [3] | IC50 ([4]; Homo sapiens) [µM] | HLM QH [5] [%] | SMILES | IC50 [1] [µM] | IC50 ([2]; 72 h) [µM] | PPB 10% FCS (% fu) ([3]; fraction unbound) | IC50 [4] [µM]
0.31 | 0.018 | 0.09 | 0.287 | 40 | [2H]C([2H])([2H])N1C[C@H](F)C[C@H]1[C@H](C)Oc1cc(N2CCN(C([2H])([2H])[2H])C3(CC3)C2)nc(-c2noc3c2CCC[C@@]32CCCc3sc(N)c(C#N)c32)n1 [II-207] | – | – | – | –
0.117 | 0.043 | 0.02 | 0.001 | <24 | C[C@H](Oc1cc(-n2ccc(-c3cn(CC4(C)COC4)nn3)n2)nc(-c2noc3c2CCC[C@@]32CCCc3sc(N)c(C#N)c32)n1)[C@@H]1CCCN1C [II-213] | – | – | – | –
0.07 | 0.059 | 0.04 | 0.005 | <24 | C[C@H](Oc1cc(-n2cc3ccn([C@@H]4CCOC4)c(=O)c3n2)nc(-c2noc3c2CCC[C@@]32CCCc3sc(N)c(C#N)c32)n1)[C@@H]1CCCN1C [II-203] | – | – | – | –
0.046 | 0.062 | 0.03 | 0.005 | <24 | C[C@H](Oc1cc(-n2cc3ccn(C[C@H]4CCOC4)c(=O)c3n2)nc(-c2noc3c2CCC[C@@]32CCCc3sc(N)c(C#N)c32)n1)[C@@H]1CCCN1C [II-204] | – | – | – | –
0.035 | 0.023 | 0.02 | 0.002 | <24 | C[C@H](Oc1cc(-n2ccc(-c3cn(C4CCOCC4)nn3)n2)nc(-c2noc3c2CCC[C@@]32CCCc3sc(N)c(C#N)c32)n1)[C@@H]1CCCN1C [II-210] | – | – | – | –
0.033 | 0.018 | 0.07 | 0.006 | 41 | CO[C@H]1CCN(C)[C@@H]1[C@H](C)Oc1cc(-n2ccc(C(N)=O)n2)nc(-c2noc3c2CCC[C@@]32CCCc3sc(N)c(C#N)c32)n1 [II-201] | – | – | – | –
0.031 | 0.063 | 0.05 | 0.004 | <24 | C[C@H](Oc1cc(-n2cc3ccn(C4CCOCC4)c(=O)c3n2)nc(-c2noc3c2CCC[C@@]32CCCc3sc(N)c(C#N)c32)n1)[C@@H]1CCCN1C [II-206] | – | – | – | –
